Test results taken from PubChem BioAssay AID2788 (Southern Research Specialized Biocontainment Screening …, 2010).
Activity calls are given as the source filed them.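 How the source made its calls: active means compound cutting the HIV-1 infection reporter signal by at least half at some tested dose; inactive means the rest.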

System: MAGI-CCR5 cells, HIV-1 Ba-L, beta-gal luminescence, 48 h
Test: antiviral activity against R5 HIV-1 in MAGI cells – MAGI-CCR5 cells, HIV-1 Ba-L, 5% and 10% serum, set 2, dose response (AID 2788)
[1] = measured here: IC50 in 10% serum

Row | SMILES | IC50 | IC50 [1] [µM]
1 | CS(=O)(=O)C1=NSC2=NC(=O)/C(=C\c3cccn3-c3ccc(Cl)cc3)C(=N)N21 | 63.8 µM | > 100
2 | O=C(O)c1ccccc1C(=O)N(Cc1cccc(Oc2ccc(Cl)cc2)c1)[C@H]1CCCc2ccccc21 | 16.2 µM | 38.2
3 | COc1ccccc1NS(=O)(=O)c1cccc(-n2c(O)c(C=Nc3ccccc3C(=O)O)c3ccccc3c2=O)c1 | 49 µM | 54.9
4 | Cc1ccc(S(=O)(=O)Oc2ccc(/C=C3/C(=N)N4C(=NC3=O)SN=C4S(C)(=O)=O)cc2)cc1 | 78.5 µM | > 100
5 | CC(C)S(=O)(=O)C1=NSC2=NC(=O)/C(=C\c3ccc(-c4cccc(C(=O)O)c4)o3)C(=N)N21 | 45.6 µM | 50.5
6 | O=C(O)c1cc(NN=Cc2ccc(-c3ccccc3)cc2)ccc1Cl | 94 µM | > 100
7 | CS(=O)(=O)C1=NSC2=NC(=O)/C(=C\c3ccc(OS(=O)(=O)c4ccccc4)cc3)C(=N)N21 | > 100 µM (inactive) | > 100
8 | O=c1c(=Cc2cc([N+](=O)[O-])cc([N+](=O)[O-])c2O)sc2nc3ccccc3n12 | 52.1 µM | > 100
9 | CC(C)S(=O)(=O)C1=NSC2=NC(=O)/C(=C\c3ccc(-c4ccccc4)o3)C(=N)N21 | 21.9 µM | 44
10 | CC1(C)CC(=O)C2=C(C1)c1c(ccc3ccccc13)NC2c1cc([N+](=O)[O-])cc([N+](=O)[O-])c1O (stereo not drawn) | 15.4 µM | 35.6
11 | COc1ccc(C(=O)Oc2ccc(C=NNc3ccc(Cl)c(C(=O)O)c3)cc2OC)cc1 | 56.4 µM | 81.4
12 | COc1ccc(OC)c(N2C(=O)/C(=C/c3ccco3)C(=O)NC2=S)c1 | 58.5 µM | 52.8
13 | CCS(=O)(=O)C1=NSC2=NC(=O)/C(=C\c3ccc(OS(=O)(=O)c4ccccc4)cc3)C(=N)N21 | > 100 µM (inactive) | > 100
14 | Cc1cc(C)cc(-n2cccc2/C=C2/C(=N)N3C(=NC2=O)SN=C3S(C)(=O)=O)c1 | 45.8 µM | 55.6
15 | Cc1ccc(-n2c(O)c(C=Nc3ccccc3-c3n[nH]c(=S)[nH]c3=O)c3ccccc3c2=O)c(C)c1 | 18 µM | 23
16 | COc1cc(C=NNc2ccc(Cl)c(C(=O)O)c2)ccc1OC(=O)c1ccc(F)cc1 | 96.5 µM | > 100
17 | COc1cc(C=NNc2ccc(Cl)c(C(=O)O)c2)ccc1OC(=O)c1ccccc1F | > 100 µM (inactive) | > 100
18 | Cc1ccc(-n2cccc2/C=C2/C(=N)N3C(=NC2=O)SN=C3S(C)(=O)=O)cc1Cl | 47.3 µM | 60.8
19 | O=C1NC(=S)N(c2ccc(F)cc2)C(=O)/C1=C/c1ccco1 | 52.9 µM | 48.7
